Results taken from patent US20100273833A1, “2-SULFINYL- AND 2-SULFONYL-SUBSTITUTED IMIDAZOLE DERIVATIVES AND THEIR USE AS CYTOKINE INHIBITORS” (priority 2005, published 2010).
≈ marks a conversion by molar mass, not a printed value. Counter-ions that a name gives are not always drawn.

What was measured:
Solubility in water = assay type: physicochemical
[1] = In vitro metabolism, incubation with rat liver microsomes; assay type: in vitro ADME; conditions: phosphate buffer pH 7.4, NADPH, 37° C., HPLC peak areas
Method: The test substances were incubated in standard experiments with rat liver microsomes (phosphate buffer with pH 7.4, NADPH, 37° C.). The biotransformations were stopped after 0, 15, 30 and 60 min by adding acetonitrile and were centrifuged, and the protein-free supernatant was analyzed by HPLC. Resulting metabolites were approximately quantified via the peak areas. The result of the biotransformation of Example 12 and of the corresponding sulfanyl compound, which is representative in terms of the sulfinyl/sulfanyl substitution comparison, is described by way of example. The sulfanyl compound was rapidly converted into a number of metabolites and, after 30 min, less than 1% of the pharmacologically active starting substance remained. Under identical experimental conditions, about 70% of the initial amount of Example 12 were still present after 30 min, and more than 50% were still present after 60 min.

SMILES	solubility in water (Solubility in water)	other results
CC(=O)Nc1cc(-c2c(-c3ccc(F)cc3)nc([S+](C)[O-])n2C)ccn1 (stereo not drawn) [Example 3 hydrochloride, N-{4-[5-(4-Fluorophenyl)-2-methanesulfinyl-3-methyl-3H-imidazol-4-yl]pyridin-2-yl}acetamide]	1120 µg/mL	–
CC(=O)Nc1cc(-c2c(-c3ccc(F)cc3)nc([S+](C)[O-])n2C)ccn1 (stereo not drawn) [Example 3 hydrobromide, N-{4-[5-(4-Fluorophenyl)-2-methanesulfinyl-3-methyl-3H-imidazol-4-yl]pyridin-2-yl}acetamide]	1050 µg/mL	–
CC(=O)Nc1cc(-c2c(-c3ccc(F)cc3)nc([S+](C)[O-])n2C)ccn1 (stereo not drawn) [Example 3 hydrogensulfate, N-{4-[5-(4-Fluorophenyl)-2-methanesulfinyl-3-methyl-3H-imidazol-4-yl]pyridin-2-yl}acetamide]	390 µg/mL (≈ 1050 µM)	–
Fc1ccc(-c2nc3n(c2-c2ccnc(Nc4ccccc4)c2)CCS3)cc1 [Example 34, {4-[6-(4-Fluorophenyl)-2,3-dihydro-imidazo[2,1-b]thiazol-5-yl]-pyridin-2-yl}-phenyl-amine]	–	melting point: 298.7 °C
CC(=O)Nc1cc(-c2c(-c3ccc(F)cc3)nc([S+](C)[O-])n2C)ccn1 (stereo not drawn) [Example 3, N-{4-[5-(4-Fluorophenyl)-2-methanesulfinyl-3-methyl-3H-imidazol-4-yl]pyridin-2-yl}acetamide]	70 µg/mL (≈ 188 µM)	–
CC(=O)Nc1cc(-c2c(-c3ccc(F)cc3)nc([S+](C)[O-])n2C)ccn1 (stereo not drawn) [Example 3 methane sulfonate, N-{4-[5-(4-Fluorophenyl)-2-methanesulfinyl-3-methyl-3H-imidazol-4-yl]pyridin-2-yl}acetamide]	890 µg/mL	–
CC(=O)Nc1cc(-c2c(-c3ccc(F)cc3)nc([S+](C)[O-])n2C)ccn1 (stereo not drawn) [Example 3 sulfate, N-{4-[5-(4-Fluorophenyl)-2-methanesulfinyl-3-methyl-3H-imidazol-4-yl]pyridin-2-yl}acetamide]	310 µg/mL	–
COCCn1c([S+](C)[O-])nc(-c2ccc(F)cc2)c1-c1ccnc(NC(C)C)c1 (stereo not drawn) [Example 12, {4-[5-(4-Fluorophenyl)-2-methanesulfinyl-3-(2-methoxyethyl)-3H-imidazol-4-yl]pyridin-2-yl}isopropylamine]	–	initial amount of starting substance still present after 30 min ([1]; 30 min): about 70%; initial amount still present after 60 min ([1]; 60 min): more than 50%
